US8580321B2, “Method for reducing the effects of chemotherapy using flagellin related polypeptides” (priority 2003, dated 2013)
Like-named read-outs stand apart in the source and are kept apart here.

Tests used:
[1] = system: lethally irradiated mice; conditions: cited from earlier work
[2] = system: C57B1/6J mice treated with gamma radiation; conditions: Komarov et al 1999; cited from earlier work
[3] = system: C57B1/6J mice treated with gamma radiation; assay: Radioprotection of mice by p53 inhibitor PFTα; assay type: in vivo, mouse; conditions: I.P. 10 mg/kg
[4] = system: NIH Swiss mice treated with cisplatinum; conditions: 10 mg/kg, after two weeks, n=11
[5] = in vivo; cited from earlier work
[6] = system: NIH Swiss mice treated with cisplatinum; conditions: i.p.; cited from earlier work
[7] = system: NF-κB; assay: EMSA of NF-κB translocation / DNA binding in A549 cells; conditions: A549 cells, 1 μg/ml, 45 min, EMSA of whole cell extracts
[8] = system: NF-κB; assay: EMSA of NF-κB binding activity in HT29 human colon cancer cells; assay type: cell-based; conditions: fragments 1 mg/ml, 15 min
Description: We further minimized the AA′ flagellin fragment by producing additional fragments through stepwise removal of peptide fragments from its N-terminal half (Table 2). […] NF-κB binding activity in HT29 cells was stimulated with TNFa (10 ng/ml), or flagellin fragments (1 mg/ml) for 15 min.

[9] = system: NF-κB; assay: NF-κB-regulated luciferase reporter assay in H116 human colon cancer cells; assay type: cell-based
Description: While translocation of NF-κB to the nucleus is a crucial step in induction of NF-κB-regulated inhibitors of apoptosis, it is not sufficient in itself. To directly test the ability of selected fragments to induce expression of NF-κB-regulated genes, we performed reporter assay experiments. Flagellin and the AA′, BB′, A′ and B′ fragments were used for treatment of H116 human colon cancer cells carrying luciferase gene under a NF-κB-responsive promoter. The reporter construct contained three NF-κB-binding sites from the E-selectin promoter combined with a Hsp70 minimal promoter that is routinely used for the detection of NF-κB status of cells. Luciferase activity was measured in cell lysates six hours after addition of flagellin or its truncated fragments into the medium. TNF was used as positive control.
In order to study the ability of the AA′ fragments to directly activate NF-κB-regulated transcription, we performed reporter assay experiments as described above for a wide range of concentrations of flagellin, original AA′ and AA′-derived fragments.

C[C@]12CC[C@H]3[C@@H](CC=C4C[C@@H](O)CC[C@@]43C)[C@@H]1CC[C@@H]2O [5-AED, 5-androstenediol, reference compound]
DMF ([1]; subcutaneous injection in mice 24 h before irradiation): 1.26

Cc1ccc(C(=O)Cn2c3c(sc2=N)CCCC3)cc1 [PFTα, pifithrin-alpha]
lethality of wild type animals receiving 6-11 Gy [2]: could be reduced | protection from single 9 Gy and fractioned cumulative 12.5 Gy (5×2.5 Gy) [3]: protects | survival after single 12.5 and 25 Gy doses of IR [3]: no effect on survival

N.N.[Cl][Pt][Cl] [cisplatinum]
mean loss in body weight, cisplatinum alone [4]: ~30% | beta deterioration [5]: 60 min | maximum tolerable dose [MTD] [6]: 10 mg/kg

AA′n1-170: (1-170)-Linker-(402-505), SEQ ID NO: 30
NF-κB Stimulation [7]: Yes | induction of NF-κB translocation [8]: induce NF-κB translocation | level of NF-κB translocation relative to flagellin [8]: comparable to that of flagellin | level of NF-κB-regulated transcription relative to flagellin ([9]; reporter assay, over the studied range of concentrations): comparable to such of flagellin | NF-κB reporter activity relative to flagellin ([9]; very low concentration range): more active than flagellin

SCF: stem cell factor (SCF, c-kit ligand), hematopoietic cytokine and radioprotectant
DMF ([1]; lethally irradiated mice): 1.3-1.35

B1: Flt-3 ligand: cytokine conferring radioprotection (protein, UniProt P49771 27-235, looked up)
Fms-related tyrosine kinase 3 …: TQDCSFQHSPISSDFAVKIRELSDYLLQDYPVTVASNLQDEELCGGLWRLVLAQRWMERLKTVAGSKMQGLLERVNTEIHFVTKCAFQPPPSCLRFVQTNISRLLQETSEQLVALKPWITRQNFSRCLELQCQPDSSTLPPPWSPRPLEATAPTAPQPPLLLLLLLPVGLLLLAAAWCLHWQRTRRRTPRPGEQVPPVPSPQDLLLVEH
DMF ([1]; lethally irradiated mice): > 1.2 | 30-day survival at LD100/30 ([1]; mice): 70-80%
